Where two headings read alike, the source gives them in different places. Marks after values point to notes of the source that are not given here.
Tests used:
[1] = target: T1, RORγt (Homo sapiens, UniProt P51449); test: Fluorescence resonance energy transfer (FRET) test, inhibitory activity of RORγt; type: biochemical
T1 construct: […]
T1 sequence (P51449 269-508 limits assumed): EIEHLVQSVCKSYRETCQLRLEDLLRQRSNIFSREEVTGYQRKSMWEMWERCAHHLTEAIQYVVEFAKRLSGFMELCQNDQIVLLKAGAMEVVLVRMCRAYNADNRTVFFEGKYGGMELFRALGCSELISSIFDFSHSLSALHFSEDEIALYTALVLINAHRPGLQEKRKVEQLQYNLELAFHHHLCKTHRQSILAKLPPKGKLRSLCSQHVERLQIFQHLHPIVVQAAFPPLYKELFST

[2] = system: inflammatory factor IL-17; test: IMQ-induced mouse psoriasis model, IL-17 in the ear; type: in vivo, c57bl/6 mice; settings: for Inhibition rate (IL-17 in the ear) / IL-17 Concentration (pg/μg protein): 90 mg/kg; for IL-17 Concentration (pg/μg protein): ear homogenate supernatant, model group 29.78, normal group 0.00; for Effect on the secretion of IL-17 in the ear of mice compared with the model group: P<0.05
[3] = Pharmacokinetic evaluation in ICR mice; type: in vivo; settings: mouse, plasma, po; for AUC(0-t) / Cmax / half-life: 5 mg/kg; for bioavailability: p.o. 5 mg/kg vs i.v. 1 mg/kg, read-out: Oral bioavailability (F)
[4] = system: inflammatory factor IL-17; test: LPS-induced mouse blood inflammatory factor IL-17 model; type: in vivo, BALB/c mice; settings: for IL-17 (pg/ml): model group 174.69
[5] = system: IMQ-induced mouse psoriasis model; test: IMQ-induced mouse psoriasis model, ear weight; type: in vivo, c57bl/6 mice
[6] = system: rat liver microsomes; test: Stability in rat liver microsomes; type: in vitro ADME; settings: 0.5 mg protein/mL, 1.5 μM compound, 37° C., NADPH
[7] = Stability in human liver microsomes; type: in vitro ADME; settings: for half-life at 1.5 μM: pH 7.4, 0.5 mg protein/mL, 1.5 μM compound, 37° C., NADPH, read-out: Human Half-life t1/2; for CLint scaled at 1.5 μM: pH 7.4, intrinsic hepatic clearance inferred from microsomal incubation, read-out: Human Clearance rate
[8] = FRET, B-RORγt LBD / Biotin-SRC1, read-out: IC50
[9] = Table 7, 30 mg/kg, plasma 4 hours after LPS
[10] = 90 mg/kg, oral gavage, 10 days modeling, model group 28.12, normal group 13.03

In the case of CCS(=O)(=O)c1ccc([C@H](CC#N)NC(=O)c2ccc(N3CC(Oc4ccc(OC(F)(F)F)cc4)C[C@H]3COC(F)F)cc2)cc1 (stereo in doubt) [Example 64, N-((S)-2-cyano-1-(4-(ethylsulfonyl)phenyl)ethyl)-4-((2S,4S)-2-((difluoromethoxy)methyl)-4-(4-(trifluoromethoxy)phenoxy)pyrrolidin-1-yl)benzamide], the IC50 [1, 8] is reported as 11 nM, the “Inhibition rate (IL-17 in the ear)” value [2] is reported as 72.47% and the “IL-17 Concentration (pg/μg protein)” value [2] is reported as 8.20 ** pg/μg protein. The “Effect on the secretion of IL-17 in the ear of mice compared with the model group” value [2] was “significantly reduce”, the AUC(0-t) [3] was 47.2 µM·h and the Cmax [3] was 3.33 µM. The half-life [3] was 13.2 h, the bioavailability [3] was 91% and the “Effect on LPS-induced mouse blood inflammatory factor IL-17” value [4] was “significantly reduce”. For the same compound, the Inhibition rate % ([4]; Table 7, 30 mg/kg) was 65%, the “IL-17 (pg/ml)” value [4, 9] was 58.48 ** pg/ml and the “Inhibition rate % (ear weight)” value ([5]; 90 mg/kg, oral gavage) was 22%. For the same compound, the “Average ear weight (mg)” value [5, 10] was 24.84* mg, the “Effect on the ear weight of mice compared with the model group” value ([5]; P<0.05) was “significantly reduce” and the “Rat Half-life t1/2 (min)” value [6] was “Not metabolized”.

CCS(=O)(=O)c1ccc([C@H](CC#N)NC(=O)c2ccc(N3CC(Oc4ccc(C(F)(F)F)cn4)C[C@H]3COC(F)F)cc2)cc1 (stereo in doubt) [Example 65, N-((S)-2-cyano-1-(4-(ethylsulfonyl)phenyl)ethyl)-4-((2S,4S)-2-((difluoromethoxy)methyl)-4-((5-(trifluoromethyl)pyridine-2-yl)oxy)pyrrolidin-1-yl)benzamide] showed a half-life at 1.5 μM [7] of 1.34 h, a CLint scaled at 1.5 μM [7] of 21.6 mL/min/kg and an AUC(0-t) [3] of 78 µM·h. For the same compound, the Cmax [3] was 7 µM, the half-life [3] was 7.9 h and the bioavailability [3] was 82%. For the same compound, the “Effect on LPS-induced mouse blood inflammatory factor IL-17” value [4] was “significantly reduce”, the Inhibition rate % ([4]; Table 7, 30 mg/kg) was 63% and the “IL-17 (pg/ml)” value [4, 9] was 61.71 ** pg/ml. The “Rat Half-life t1/2 (min)” value [6] was “Not metabolized”.

Compound CCS(=O)(=O)c1ccc([C@H](CC#N)NC(=O)c2ccc(N3C[C@@H](Oc4ccc(OC(F)F)cc4)C[C@H]3COC(F)F)cc2)cc1 [Example 22, N-((S)-2-cyano-1-(4-(ethylsulfonyl)phenyl)ethyl)-4-((2S,4S)-2-((difluoromethoxy)methyl)-4-(4-(difluoromethoxy)phenoxy)pyrrolidin-1-yl)benzamide] has an IC50 [1, 8] of 9 nM, a half-life at 1.5 μM [7] of 3.98 h and a CLint scaled at 1.5 μM [7] of 7.3 mL/min/kg. For the same compound, the “Inhibition rate (IL-17 in the ear)” value [2] was 40.08%, the “IL-17 Concentration (pg/μg protein)” value [2] was 17.85 * pg/μg protein and the “Effect on the secretion of IL-17 in the ear of mice compared with the model group” value [2] was “significantly reduce”. For the same compound, the AUC(0-t) [3] was 37 µM·h, the Cmax [3] was 4.8 µM and the half-life [3] was 3.6 h. For the same compound, the bioavailability [3] was 80%, the “Effect on LPS-induced mouse blood inflammatory factor IL-17” value [4] was “a certain tendency to inhibit” and the Inhibition rate % ([4]; Table 8, 15 mg/kg) was 10.55%. For the same compound, the “IL-17” value ([4]; Table 8, 15 mg/kg, plasma 4 hours after LPS, model group 81.33) was 72.12 pg/mL, the “Inhibition rate % (ear weight)” value ([5]; 90 mg/kg, oral gavage) was 2% and the “Average ear weight” value [5, 10] was 28.12 mg. The “Rat Half-life t1/2 (min)” value [6] was “Not metabolized”.

For CCS(=O)(=O)c1ccc([C@H](COC(N)=O)NC(=O)c2ccc(N3C[C@@H](Oc4ccc(-n5cccn5)cn4)C[C@H]3COC(F)F)nc2)cc1 [Example 168, (R)-2-(6-((2S,4S)-4-((5-(1H-pyrazol-1-yl)pyridine-2-yl)oxy)-2-((difluoromethoxy)methyl)pyrrolidin-1-yl)nicotinylamino)-2-(4-(ethylsulfonyl)phenyl)ethyl carbamate], the IC50 [1, 8] was 8 nM.

In the case of [2H]C([2H])(NC(=O)c1ccc(N2C[C@@H](Oc3ccc(OC(F)(F)F)cn3)C[C@H]2COC(F)F)cc1)c1ccc(S(=O)(=O)CC)cc1 [Example 169, N-(Dideuterium(4-(ethylsulfonyl)phenyl)methyl)-4-((2S,4S)-2-((difluoromethoxy)methyl)-4-((5-(trifluoromethoxy)pyridin-2-yl)oxy)pyrrolidin-1-yl) benzamide], the IC50 [1] is reported as 6 nM.

For CCS(=O)(=O)c1ccc([C@H](COC(N)=O)NC(=O)c2ccc(N3C[C@@H](Oc4ccc(-n5nccn5)cn4)C[C@H]3COC(F)F)cc2)cc1 [Example 170, (R)-2-(4-((2S,4S)-4-((5-(2H-1,2,3-triazol-2-yl)pyridine-2-yl)oxy)-2-((difluoromethoxy)methyl)pyrrolidin-1-yl)benzoylamino)-2-(4-(ethylsulfonyl)phenyl)ethyl carbamate], the IC50 [1, 8] was 9 nM.

In the case of CCS(=O)(=O)c1ccc([C@H](CC(=O)O)NC(=O)c2ccc(N3C[C@@H](Oc4ccc(-n5cccn5)cn4)C[C@H]3COC(F)F)cc2)cc1 [Example 172, (S)-3-(4-((2S,4S)-4-((5-(1H-pyrazol-1-yl)pyridine-2-yl)oxy)-2-((difluoromethoxy)methyl)pyrrolidin-1-yl)benzamido)-3-(4-(ethylsulfonyl)phenyl)propionic Acid], the IC50 [1, 8] is reported as 23.5 nM.

CCS(=O)(=O)c1ccc([C@H](COC(N)=O)NC(=O)c2ccc(N3C[C@@H](Oc4ccc(-n5nccn5)cn4)C[C@H]3COC(F)F)nc2)cc1 [Example 173, (R)-2-(6-((2S,4S)-4-((5-(2H-1,2,3-triazol-2-yl)pyridine-2-yl)oxy)-2-((difluoromethoxy)methyl)pyrrolidin-1-yl)nicotinylamino)-2-(4-(ethylsulfonyl)phenyl)ethyl carbamate] gave an IC50 [1, 8] of 3.8 nM.

CCS(=O)(=O)c1ccc([C@H](COCC(=O)O)NC(=O)c2ccc(N3C[C@@H](Oc4ccc(-n5cccn5)cn4)C[C@H]3COC(F)F)nc2)cc1 [Example 175, 2-((R)-2-(6-((2S,4S)-4-((5-(1H-pyrazol-1-yl)pyridine-2-yl)oxy)-2-((difluoromethoxy)methyl)pyrrolidin-1-yl)nicotinylamino)-2-(4-(ethylsulfonyl)phenyl)ethoxy)acetic Acid] showed an IC50 [1, 8] of 39.2 nM.

For CCS(=O)(=O)c1ccc([C@H](COC(N)=O)NC(=O)c2ccc(N3C[C@@H](Oc4ccc(OC(F)(F)F)cn4)C[C@H]3CF)nc2)cc1 [Example 176, (R)-2-(4-(Ethylsulfonyl)phenyl)-2-(6-((2S,4S)-2-(fluoromethyl)-4-((5-(trifluoromethoxy)pyridin-2-yl)oxy)pyrrolidin-1-yl)nicotinamido)ethyl carbamate], the IC50 [1, 8] was 7.3 nM.

CCS(=O)(=O)c1ccc([C@H](COC(N)=O)NC(=O)c2cnc(N3CCCC3c3cccc(F)c3)nc2)cc1 (stereo partly drawn) [Example 177, (2R)-2-(4-(Ethylsulfonyl)phenyl)-2-(2-(2-(3-fluorophenyl)pyrrolidin-1-yl)pyrimidine-5-carboxamido)ethyl carbamate] gave an IC50 [1, 8] of 27.4 nM.

Compound CCS(=O)(=O)c1ccc([C@H](CC(=O)O)NC(=O)c2cnc(N3CCCC3c3cccc(F)c3)nc2)cc1 (stereo partly drawn) [Example 178, (3S)-3-(4-(Ethylsulfonyl)phenyl)-3-(2-(2-(3-fluorophenyl)pyrrolidin-1-yl)pyrimidine-5-carboxamido)propionic Acid] has an IC50 [1, 8] of 46.2 nM.

CCS(=O)(=O)c1ccc([C@H](COC(N)=O)NC(=O)c2cnc(N3CC(F)(F)CC3c3cccc(F)c3)nc2)cc1 (stereo partly drawn) [Example 179, (2R)-2-(2-(4,4-difluoro-2-(3-fluorophenyl)pyrrolidin-1-yl)pyrimidine-5-carboxamido)-2-(4-(ethylsulfonyl)phenyl)ethyl carbamate] gave an IC50 [1, 8] of 9.4 nM.

In the case of NC(=O)OCC(C(=O)Nc1ccc(C(O)(C(F)(F)F)C(F)(F)F)cc1)c1ccc(S(=O)(=O)CC2CC2)cc1 (stereo not shown) [Example 182, 2-(4-((cyclopropylmethyl)sulfonyl)phenyl)-3-((4-(1,1,1,3,3,3-hexafluoro hydroxypropan-2-yl)phenyl)amino)-3-oxopropyl carbamate], the IC50 [1, 8] is reported as 55.8 nM.

For CCS(=O)(=O)c1ccc([C@H](COC(N)=O)NC(=O)c2ccc(N3C[C@@H](Oc4ccc(Cl)cn4)C[C@H]3COC(F)F)nc2)cc1 [Example 183, (R)-2-(6-((2S,4S)-4-((5-chloropyridin-2-yl)oxy)-2-((difluoromethoxy)methyl)pyrrolidin-1-yl)nicotinamido)-2-(4-(ethylsulfonyl)phenyl)ethyl carbamate], the IC50 [1, 8] was 10 nM.

“N—((S)-2-cyano-1-(4-(ethylsulfonyl)phenyl)ethyl)-4-((2S,4S)-2-((difluoromethoxy)methyl)-4-(4-(4-fluoro-1H-pyrazol-1-yl)phenoxy)pyrrolidin-1-yl) benzamide [Example 161]” showed an IC50 [1, 8] of 10.4 nM.

Work on “N—((S)-2-cyano-1-(4-(ethylsulfonyl)phenyl)ethyl)-4-((2S,5R)-5-(2,2-difluorobenzo[1,3]dioxol yl)-2-((difluoromethoxy)methyl)piperidin-1-yl)benzamide [Example 112-2]” yielded an IC50 [1, 8] of 13 nM.

From patent US20230121086A1, “RORgT INHIBITOR, PREPARATION METHOD THEREOF AND USE THEREOF” (SUNSHINE LAKE PHARMA CO., LTD., priority 2020, published 2023)
